What was measured:
Type in all cases: in vivo, human
[1] = test system: patients with a first clinical episode suggestive of multiple sclerosis; experiment: Confirmed MS relapse / annualized relapse rate (ARR), same study; conditions: for Unadjusted annualized relapses rate / Total number of relapses / Number of patients with ≧1 relapses: No / Number of relapses: 0 (patients) / Number of relapses: 1 (patients) / Number of relapses: 2 (patients) / Number of relapses: >=3 (patients): ITT; for Number of patients with ≧1 relapses: Yes / Number of patients with ≧1 relapses: No / Number of relapses: 0 (patients) / Number of relapses: 1 (patients) / Number of relapses: 2 (patients) / Number of relapses: >=3 (patients): number (%); for Risk reduction of on-treatment adjusted ARR relative to placebo: non-statistically significant
Excerpt: (§1) Methodology: This was a multi-center, multinational, randomized, placebo-controlled, double blind, parallel group (3 groups) study stratified by center and baseline monofocal/multifocal status.
(§2) Diagnosis and criteria for inclusion: Patients with a first acute or subacute, well-defined neurological event consistent with demyelination with onset of MS symptoms occurring within 90 days of randomization; and abnormal MRI with 2 or more T2 lesions at least 3 mm in diameter that are characteristic of MS.
(§3) Statistical methods: Analysis population: Efficacy analyses were based on the intent-to-treat (ITT) population consisting of all randomized patients, as randomized, who had at least 1 day exposure to study medication.
(§4) The key secondary endpoint was analyzed using the same Cox regression model. ARR was analyzed using a Poisson regression model with robust error variance including the number of confirmed relapses with their onset between randomization date and last dose date as the response variable, treatment, region, and baseline monofocal/multifocal status as covariates, and log transformed standardized exposure duration as an offset variable.

[2] = test system: patients with a first clinical episode suggestive of multiple sclerosis; experiment: Time to conversion to CDMS, randomized double-blind placebo-controlled study; conditions: for Hazard ratio (95% CI), time to conversion to CDMS: Cox proportional hazard model; for Number of patients who were censored (time to conversion to CDMS) / Number of patients with conversion to CDMS: number (%); for Kaplan-Meier estimates of probability of conversion to CDMS (95% CI): ITT
Excerpt: as §1, §2
Efficacy/pharmacodynamics: The primary efficacy variable was time to CDMS defined by the occurrence of a relapse: new neurological abnormality separated by at least 30 days from onset of a preceding clinical event, present for at least 24 hours and occurring in the absence of fever or known infection.
as §3
Efficacy analysis: The primary analysis of time to conversion to CDMS was performed using Cox regression model with treatment, region, and baseline monofocal/multifocal status as independent variables. The assessment of efficacy was based on (pairwise) hazard rate ratio comparisons of each active dose of teriflunomide versus placebo. Two-sided 95% confidence intervals of the hazard rates ratio were provided for each teriflunomide treatment effect estimate versus placebo. The log-rank test was provided as supportive.
(§5) Multiplicity procedure: Step down approach was used for multiplicity adjustment for 2 doses of teriflunomide and the primary and key secondary endpoints. Treatment comparison of teriflunomide 14 mg vs. placebo in time to conversion to CDMS was tested at 5% significance level. If significant, comparison of teriflunomide 7 mg vs. placebo in time to conversion to CDMS was tested at 5% significance level. If significant, comparison of teriflunomide 14 mg vs. placebo for the key secondary endpoint was tested at 5% significance level. If significant, comparison of teriflunomide 7 mg vs. placebo for the key secondary endpoint was tested at 5% significance level.

[3] = test system: patients with a first clinical episode suggestive of multiple sclerosis; experiment: Study treatment discontinuation and tolerability, same study
Procedure: as §1
454 (73.9%) patients completed 108 weeks of study treatment or entered the extension: 71.6% in the placebo group, 73.2% in the teriflunomide 7 mg group, and 75.5% in the teriflunomide 14 mg group. […] The mean (±SD) age was 32.1 (±8.5) years and the study population was primarily Caucasian (96.1%).

[4] = test system: patients with a first clinical episode suggestive of multiple sclerosis; experiment: Time to conversion to DMS (dissemination of MRI lesions in time or a relapse), same study; conditions: for Hazard ratio (95% CI), time to conversion to DMS: Cox proportional hazard model; for Number of patients with conversion to DMS / Number of patients who were censored (time to conversion to DMS) / Number of patients with conversion to DMS: Dissemination of MRI lesion in time / Number of patients with conversion to DMS: Relapse: number (%); for Number of patients who were censored (time to conversion to DMS) / Number of patients with conversion to DMS: Dissemination of MRI lesion in time / Number of patients with conversion to DMS: Relapse / Kaplan-Meier estimates of probability of conversion to DMS (95% CI): ITT
Excerpt: as §1, §2, §3, §4, §5

[5] = 14 mg once daily, ITT (N = 214)
[6] = 7 mg once daily, randomized population (N = 205)
[7] = 14 mg once daily, randomized population (N = 216)

C/C(O)=C(\C#N)C(=O)Nc1ccc(C(F)(F)F)cc1 [teriflunomide, (Z)-2-cyano-3-hydroxy-but-2-enoic acid-(4′-trifluoromethylphenyl)-amide]
Adjusted annualized relapse rate, Relative risk (95% CI) ([1]; 7 mg once daily vs placebo, P-value 0.0541): 0.669
Adjusted annualized relapse rate, Risk difference (95% CI) ([1]; 7 mg once daily vs placebo, P-value 0.0576): −0.094
Unadjusted annualized relapses rate ([1]; 7 mg once daily): 0.209
Number of patients with ≧1 relapses: Yes ([1]; 7 mg once daily, ITT (N = 203)): 42 (20.7%)
Total number of relapses ([1]; 7 mg once daily, 258.5 patient-years followed): 54
Number of patients with ≧1 relapses: No ([1]; 7 mg once daily): 161 (79.3%)
Number of relapses: 0 (patients) ([1]; 7 mg once daily): 161 (79.3%)
Number of relapses: 1 (patients) ([1]; 7 mg once daily): 33 (16.3%)
Number of relapses: 2 (patients) ([1]; 7 mg once daily): 7 (3.4%)
Number of relapses: >=3 (patients) ([1]; 7 mg once daily): 2 (1.0%)
Risk reduction of on-treatment adjusted ARR relative to placebo ([1]; 7 mg once daily, p=0.0541): 33.1%
Adjusted annualized relapse rate, Relative risk (95% CI) ([1]; 14 mg once daily vs placebo, P-value 0.0579): 0.681
Adjusted annualized relapse rate, Risk difference (95% CI) ([1]; 14 mg once daily vs placebo, P-value 0.0628): −0.091
Unadjusted annualized relapses rate ([1]; 14 mg once daily): 0.208
Number of patients with ≧1 relapses: Yes [1, 5]: 45 (21.0%)
Total number of relapses ([1]; 14 mg once daily, 288.9 patient-years followed): 60
Number of patients with ≧1 relapses: No ([1]; 14 mg once daily): 169 (79.0%)
Number of relapses: 0 (patients) ([1]; 14 mg once daily): 169 (79.0%)
Number of relapses: 1 (patients) ([1]; 14 mg once daily): 33 (15.4%)
Number of relapses: 2 (patients) ([1]; 14 mg once daily): 10 (4.7%)
Number of relapses: >=3 (patients) ([1]; 14 mg once daily): 2 (0.9%)
Risk reduction of on-treatment adjusted ARR relative to placebo ([1]; 14 mg once daily, p=0.0579): 31.9%
Hazard ratio (95% CI), time to conversion to CDMS ([2]; 7 mg once daily vs placebo, P-value 0.0271, log-rank P 0.0422): 0.628
Number of patients who were censored (time to conversion to CDMS) ([2]; 7 mg once daily, ITT (N = 203)): 164 (80.8%)
Number of patients with conversion to CDMS ([2]; 7 mg once daily, ITT population (N = 203)): 39 (19.2%)
Kaplan-Meier estimates of probability of conversion to CDMS (95% CI) ([2]; 7 mg once daily, at 24 weeks): 0.087
Kaplan-Meier estimates of probability of conversion to CDMS (95% CI) ([2]; 7 mg once daily, at 48 weeks): 0.142
Estimated cumulative rate of conversion to CDMS ([2]; 7 mg once daily, at 108 weeks): 27.6%
Kaplan-Meier estimates of probability of conversion to CDMS (95% CI) ([2]; 7 mg once daily, at 108 weeks): 0.276
Reduction of the risk of conversion to CDMS compared to placebo ([2]; 7 mg once daily, p=0.0271): 37.2%
Hazard ratio (95% CI), time to conversion to CDMS ([2]; 14 mg once daily vs placebo, P-value 0.0087, log-rank P 0.0133): 0.574
Number of patients who were censored (time to conversion to CDMS) [2, 5]: 176 (82.2%)
Number of patients with conversion to CDMS ([2]; 14 mg once daily, ITT population (N = 214)): 38 (17.8%)
Kaplan-Meier estimates of probability of conversion to CDMS (95% CI) ([2]; 14 mg once daily, at 24 weeks): 0.090
Kaplan-Meier estimates of probability of conversion to CDMS (95% CI) ([2]; 14 mg once daily, at 48 weeks): 0.137
Estimated cumulative rate of conversion to CDMS ([2]; 14 mg once daily, at 108 weeks): 24.0%
Kaplan-Meier estimates of probability of conversion to CDMS (95% CI) ([2]; 14 mg once daily, at 108 weeks): 0.240
Reduction of the risk of conversion to CDMS compared to placebo ([2]; 14 mg once daily, p=0.0087): 42.6%
Study treatment discontinuation: Adverse event (number of patients) [3, 6]: 25
Study treatment discontinuation: Death (number of patients) [3, 6]: 0
Study treatment discontinuation: Lack of efficacy [3, 6]: (2.9%)
Study treatment discontinuation: Lack of efficacy (number of patients) [3, 6]: 6
Study treatment discontinuation: Progressive Disease [3, 6]: (0.5%)
Study treatment discontinuation: Progressive Disease (number of patients) [3, 6]: 1
Study treatment discontinuation: Adverse event (number of patients) [3, 7]: 18
Study treatment discontinuation: Death (number of patients) [3, 7]: 0
Study treatment discontinuation: Lack of efficacy [3, 7]: (5.6%)
Study treatment discontinuation: Lack of efficacy (number of patients) [3, 7]: 12
Study treatment discontinuation: Progressive Disease (number of patients) [3, 7]: 0
Tolerability / safety profile ([3]; both doses (7 mg and 14 mg once daily)): well tolerated with a manageable safety profile
Hazard ratio (95% CI), time to conversion to DMS ([4]; 7 mg once daily vs placebo, P-value 0.0020, log-rank P 0.0028): 0.686
Number of patients with conversion to DMS ([4]; 7 mg once daily, ITT (N = 203)): 125 (61.6%)
Number of patients who were censored (time to conversion to DMS) ([4]; 7 mg once daily): 78 (38.4%)
Number of patients with conversion to DMS: Dissemination of MRI lesion in time ([4]; 7 mg once daily): 110 (54.2%)
Number of patients with conversion to DMS: Relapse ([4]; 7 mg once daily): 15 (7.4%)
Kaplan-Meier estimates of probability of conversion to DMS (95% CI) ([4]; 7 mg once daily, at 24 weeks): 0.457
Kaplan-Meier estimates of probability of conversion to DMS (95% CI) ([4]; 7 mg once daily, at 48 weeks): 0.573
Estimated cumulative rate of conversion to DMS (dissemination of MRI lesions in time or confirmed relapse) ([4]; 7 mg once daily, at 108 weeks): 73.3%
Kaplan-Meier estimates of probability of conversion to DMS (95% CI) ([4]; 7 mg once daily, at 108 weeks): 0.733
Reduction of the risk of conversion to DMS (dissemination of MRI lesions in time or a relapse) compared to placebo ([4]; 7 mg once daily, p=0.0020): 31.4%
Hazard ratio (95% CI), time to conversion to DMS ([4]; 14 mg once daily vs placebo, P-value 0.0003, log-rank P 0.0002): 0.651
Number of patients with conversion to DMS [4, 5]: 136 (63.6%)
Number of patients who were censored (time to conversion to DMS) ([4]; 14 mg once daily): 78 (36.4%)
Number of patients with conversion to DMS: Dissemination of MRI lesion in time ([4]; 14 mg once daily): 111 (51.9%)
Number of patients with conversion to DMS: Relapse ([4]; 14 mg once daily): 25 (11.7%)
Kaplan-Meier estimates of probability of conversion to DMS (95% CI) ([4]; 14 mg once daily, at 24 weeks): 0.460
Kaplan-Meier estimates of probability of conversion to DMS (95% CI) ([4]; 14 mg once daily, at 48 weeks): 0.578
Estimated cumulative rate of conversion to DMS (dissemination of MRI lesions in time or confirmed relapse) ([4]; 14 mg once daily, at 108 weeks): 71.5%
Kaplan-Meier estimates of probability of conversion to DMS (95% CI) ([4]; 14 mg once daily, at 108 weeks): 0.715
Reduction of the risk of conversion to DMS (dissemination of MRI lesions in time or a relapse) compared to placebo ([4]; 14 mg once daily, p=0.0003): 34.9%
